Results from patent US20060111556A1, “Preventives/remedies for neurodegenerative diseases” (priority 2002, published 2006).

Assays:
[1] = tested on: neuronal cell death inducible putative kinase (NIPK) gene; assay: NIPK gene expression analysis by oligonucleotide microarray after endoplasmic reticulum stress; assay type: cell-based; conditions: rat primary nerve cells, medial expression level taken as 1
Experimental: Rat primary nerve cells prepared from CD rat (Charles River Japan, Inc.) of TP-17 were suspended in B27-supplemented Neurobasal medium (NB medium: GIBCO) charged in a type I collagen-coated 24-well plate and then plated at 250,000 cells/well, followed by culturing for 3 days.
(i) Tunicamycin (Tnc) was added to the culture cells above in a final concentration of 100 nM, (ii) thapsigargin (Thap) was added to the culture cells above in a final concentration of 2 nM, or (iii) the culture cells described above were cultured in glucose-free B27-suplemented DMEM medium with 2 medium changes and then 2-deoxyglucose (2DG) was added in 3 mM. The total RNA was extracted from the cells 4, 8 and 24 hours, respectively, in accordance with the operating manual using RNeasy Mini kit (Qiagen). Cells added to the respective media (drug-free cells) in place of the drugs above (Tnc, Thap and 2DG) were used for control. Using the oligonucleotide microarray (Rat Genome U34A; Affymetrix Corp.), gene expression analysis was conducted on these materials.
The experimental method was carried out in accordance with the expression analysis technical manual of Affymetrix Corp. Gene expression profiles were compared between the cells stimulated with each drug and the cells with no drug. […] (TABLE 1).

[2] = tested on: NIPK gene; assay: NIPK gene expression analysis by oligonucleotide microarray after β amyloid stimulation; assay type: cell-based; conditions: rat primary nerve cells, β amyloid 25 μM, 24 hours after stimulation, medial expression level taken as 1
Experimental: In order to examine if […] stimulation would affect the expression of NIPK gene with enhanced expression by endoplasmic reticulum stress, gene expression analysis was performed as in EXAMPLE 1, using cells stimulated with β amyloid.
Rat primary nerve cells prepared as in EXAMPLE 1 were suspended in N2-supplemented DMEM medium (GIBCO) and then plated at 250,000 cells/well, followed by incubation for 4 days. After the incubation, β amyloid suspended in the medium above in a final concentration of 25 μM was added to the medium. As in EXAMPLE 1, the total RNA was extracted from the cells 4, 8 and 24 hours after the addition and provided for gene analysis. For control, the cells to which the medium described above was added instead of β amyloid were used. Expression of NIPK was more enhanced in the cells stimulated with β, when compared to control (TABLE 2).

[3] = biological target: T1, Akt1 (Homo sapiens, UniProt P31749); assay: Immunoprecipitation with anti-V5 antibody and western blotting with anti-Akt1 antibody; assay type: binding; conditions: V5-tagged NIPK and Akt1 co-expressed in COS7 cells; control GFP and Akt1
T1 construct: expressed in transfected cells; host or cells: COS7 cells
Experimental: Using human NIPK cloned into pCDNA3.1-/V5-His TOPO (Invitrogen) vector (EXAMPLE 3) as a template, PCR was carried out with synthetic primers (SEQ ID NO: 3 and SEQ ID NO: 23) and Pfu turbo (Stratagene) as an enzyme under the conditions (1)-(3) to obtain the specific PCR product. • (1) 94° C. for 5 minutes • (2) 94° C. for 30 seconds—60° C. for 30 seconds—72° C. for 1 minute, 25 time • (3) 72° C. for 5 minutes
The PCR product obtained was cloned into pCDNA3.1-/V5-His TOPO (Invitrogen) to transfect Escherichia coli DH5α. The resulting colony was cultured in LB medium to recover V5-tagged human NIPK gene expression vector.
Akt1 gene expression vector was prepared by the following procedures. Using Quick-clone human whole brain cDNA (Clontech) as a template, PCR was carried out with synthetic primers (SEQ ID NO: 24 and SEQ ID NO: 25) and Pfu turbo (Stratagene) as an enzyme under the conditions (1)-(3) below to obtain the specific PCR product. • (1) 94° C. for 5 minutes • (2) 94° C. for 30 seconds—58° C. for 30 seconds—72° C. for 2 minutes, 35 times • (3) 72° C. for 5 minutes […]

T1 sequence (P31749 whole entry): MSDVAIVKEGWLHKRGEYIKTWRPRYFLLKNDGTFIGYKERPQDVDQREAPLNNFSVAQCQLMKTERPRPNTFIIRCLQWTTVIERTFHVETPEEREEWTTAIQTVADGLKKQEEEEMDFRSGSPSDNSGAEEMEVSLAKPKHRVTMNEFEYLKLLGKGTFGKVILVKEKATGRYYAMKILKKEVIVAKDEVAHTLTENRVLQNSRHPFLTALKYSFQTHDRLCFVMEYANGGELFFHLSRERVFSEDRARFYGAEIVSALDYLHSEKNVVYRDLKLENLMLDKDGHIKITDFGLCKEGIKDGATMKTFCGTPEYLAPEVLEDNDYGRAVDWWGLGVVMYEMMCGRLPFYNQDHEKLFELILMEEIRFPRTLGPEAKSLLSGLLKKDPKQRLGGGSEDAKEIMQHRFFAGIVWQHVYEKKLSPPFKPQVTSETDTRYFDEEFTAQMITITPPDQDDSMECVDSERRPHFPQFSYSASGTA

Molecule: C/C=C(/C)C(=O)O[C@H]1C(C)=C2[C@H]([C@@H]1OC(=O)CCCCCCC)[C@@](C)(OC(C)=O)C[C@H](OC(=O)CCC)[C@@]1(O)[C@H]2OC(=O)[C@@]1(C)O [Thap, thapsigargin]
- Gene Expression Level ([1]; thapsigargin 2 nM, 4 hours after stimulation): 0.93
- Gene Expression Level ([1]; thapsigargin 2 nM, 8 hours after stimulation): 2.70
- Gene Expression Level ([1]; thapsigargin 2 nM, 24 hours after stimulation): 1.64

Molecule: O=CC[C@@H](O)[C@H](O)[C@H](O)CO [2DG, 2-deoxyglucose]
- Gene Expression Level ([1]; glucose-free medium, 2-deoxyglucose 3 mM, 4 hours after addition): 0.72
- Gene Expression Level ([1]; glucose-free medium, 2-deoxyglucose 3 mM, 8 hours after addition): 1.79
- Gene Expression Level ([1]; glucose-free medium, 2-deoxyglucose 3 mM, 24 hours after addition): 2.45

Molecule: β amyloid
- Gene Expression Level [2]: 0.34

Molecule: Tunicamycin [Tnc]
- Gene Expression Level ([1]; tunicamycin 100 nM, 4 hours after stimulation): 0.41
- Gene Expression Level ([1]; tunicamycin 100 nM, 8 hours after stimulation): 1.64
- Gene Expression Level ([1]; tunicamycin 100 nM, 24 hours after stimulation): 1.32

B1: NIPK: human neuronal cell death inducible putative kinase, amino acid sequence SEQ ID NO: 1; V5-tagged, expressed in COS7 cells (protein)
chain: MRATPLAAPAGSLSRKKRLELDDNLDTERPVQKRARSGPQPRLPPCLLPLSPPTAPDRATAVATASRLGPYVLLEPEEGGRAYQALHCPTGTEYTCKVYPVQEALAVLEPYARLPPHKHVARPTEVLAGTQLLYAFFTRTHGDMHSLVRSRHRIPEPEAAVLFRQMATALAHCHQHGLVLRDLKLCRFVFADRERKKLVLENLEDSCVLTGPDDSLWDKHACPAYVGPEILSSRASYSGKAADVWSLGVALFTMLAGHYPFQDSEPVLLFGKIRRGAYALPAGLSAPARCLVRCLLRREPAERLTATGILLHPWLRQDPMPLAPTRSHLWEAAQVVPDGLGLDEAREEEGDREVVLYG
modifications: V5 tag; Homo sapience
notes: V5-tagged, expressed in COS7 cells
- binding to Akt1 within the cells [3]: bound to Akt1
